According to PMC7179119, “A New Positron Emission Tomography Probe for Orexin Receptors Neuroimaging” (Molecules, 2020):
Like-named read-outs stand apart in the source and are kept apart here.

Legend:
Assay in all cases: PDSP off-target radioligand binding assay
DOR = DOR (Homo sapiens, UniProt P41143)
Description: (§1) Table S1. Off binding data of CW24.
(§2) The off-target binding assays were performed at PDSP with their standard protocol (https://pdspdb.unc.edu/pdspWeb/content/UNC-CH%20Protocol%20Book.pdf). In radioligand binding assays, CW24 was tested at a single concentration (10 µM) and in quadruplicate in 96-well plates. The binding assays were carried out in a final of volume of 125 µl per well in appropriate binding buffers. The hot ligand concentration is usually at a concentration close to the Kd (unless otherwise indicated). Total binding and nonspecific binding are determined in the absence and presence of 10 µM of the appropriate reference compound, respectively. In brief, plates are usually incubated at room temperature and in the dark for 90 mins. Reactions are stopped by vacuum filtration onto 0.3% polyethyleneimine (PEI) soaked 96-well filter mats using a 96-well Filtermate harvester, followed by three washes with cold wash buffers (for details, see Tables 2 to 24). Scintillation cocktail is then melted onto the microwave-dried filters on a hot plate and radioactivity is counted in a Microbeta counter.
(§3) Receptor % Inhibition 1 % Inhibition 2 % Inhibition 3 % Inhibition 4 Mean±SD %

5-HT7A = biological target: T1, 5-HT7A (Homo sapiens, UniProt P34969)
T1 construct: NIMH PDSP
Description: as §1, §2, §3

Alpha2C = biological target: T2, Alpha2C (Homo sapiens, UniProt P18825)
T2 construct: NIMH PDSP
T2 sequence (P18825 1-462): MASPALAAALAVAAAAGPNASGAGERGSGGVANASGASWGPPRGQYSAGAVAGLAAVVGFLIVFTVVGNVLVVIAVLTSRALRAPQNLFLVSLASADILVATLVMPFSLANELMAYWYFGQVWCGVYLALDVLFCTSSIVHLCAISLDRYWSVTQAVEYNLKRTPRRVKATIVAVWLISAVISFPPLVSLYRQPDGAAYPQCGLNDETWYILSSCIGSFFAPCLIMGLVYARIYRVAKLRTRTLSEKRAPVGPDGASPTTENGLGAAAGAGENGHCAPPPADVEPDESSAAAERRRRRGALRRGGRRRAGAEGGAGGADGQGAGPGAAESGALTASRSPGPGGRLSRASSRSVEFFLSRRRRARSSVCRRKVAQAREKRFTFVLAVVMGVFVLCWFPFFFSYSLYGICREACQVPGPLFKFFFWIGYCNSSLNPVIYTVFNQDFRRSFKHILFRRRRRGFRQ
Description: as §1, §2, §3

Alpha1D = biological target: T3, Alpha1D (Homo sapiens, UniProt P25100)
T3 construct: NIMH PDSP
T3 sequence (P25100 1-572): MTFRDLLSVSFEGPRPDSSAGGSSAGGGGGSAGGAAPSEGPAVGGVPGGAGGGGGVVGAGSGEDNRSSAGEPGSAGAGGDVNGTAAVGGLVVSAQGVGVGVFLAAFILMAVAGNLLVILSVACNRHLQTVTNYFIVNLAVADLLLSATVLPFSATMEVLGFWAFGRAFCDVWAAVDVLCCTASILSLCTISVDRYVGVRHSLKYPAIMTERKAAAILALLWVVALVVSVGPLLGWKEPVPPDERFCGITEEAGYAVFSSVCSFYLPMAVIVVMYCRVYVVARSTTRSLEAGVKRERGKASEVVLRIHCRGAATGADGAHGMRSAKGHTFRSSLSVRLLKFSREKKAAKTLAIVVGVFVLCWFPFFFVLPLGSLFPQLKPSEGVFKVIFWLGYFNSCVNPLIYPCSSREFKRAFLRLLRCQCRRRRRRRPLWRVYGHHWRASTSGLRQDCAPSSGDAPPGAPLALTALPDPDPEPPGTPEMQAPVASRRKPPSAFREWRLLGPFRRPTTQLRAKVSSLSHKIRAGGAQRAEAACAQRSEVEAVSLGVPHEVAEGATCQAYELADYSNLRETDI
Description: as §1, §2, §3

5-HT1E = biological target: T4, 5-HT1E (Homo sapiens, UniProt P28566)
T4 construct: NIMH PDSP
Description: as §1, §2, §3

D1 = biological target: T5, D1 (Homo sapiens, UniProt P21728)
T5 construct: NIMH PDSP
Description: as §1, §2, §3

5-HT3 = biological target: T6, 5-HT3 (Homo sapiens, UniProt P46098)
T6 construct: NIMH PDSP
T6 sequence (P46098 24-478): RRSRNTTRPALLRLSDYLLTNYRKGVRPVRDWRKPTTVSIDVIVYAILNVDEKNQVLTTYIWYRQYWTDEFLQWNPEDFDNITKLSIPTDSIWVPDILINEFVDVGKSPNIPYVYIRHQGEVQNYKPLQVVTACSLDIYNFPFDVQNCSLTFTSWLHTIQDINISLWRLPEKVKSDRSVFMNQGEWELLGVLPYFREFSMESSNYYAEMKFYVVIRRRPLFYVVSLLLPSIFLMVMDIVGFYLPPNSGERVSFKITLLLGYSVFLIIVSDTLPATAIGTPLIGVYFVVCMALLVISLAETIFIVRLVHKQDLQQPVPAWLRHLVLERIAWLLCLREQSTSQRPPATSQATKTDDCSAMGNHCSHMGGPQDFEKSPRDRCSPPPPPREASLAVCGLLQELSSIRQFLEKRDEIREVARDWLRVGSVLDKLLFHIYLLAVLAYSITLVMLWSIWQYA
Description: as §1, §2, §3

D2 = biological target: T7, D2 (Homo sapiens, UniProt P14416)
T7 construct: NIMH PDSP
Description: as §1, §2, §3

H3 = H3 (Homo sapiens, UniProt Q9Y5N1)
Description: as §1, §2, §3

[1] = quadruplicate, read-out: Mean±SD % inhibition
[2] = replicate 1, read-out: % Inhibition 1
[3] = replicate 2, read-out: % Inhibition 2
[4] = replicate 3, read-out: % Inhibition 3
[5] = replicate 4, read-out: % Inhibition 4

Sequence of H3 (Q9Y5N1 whole entry): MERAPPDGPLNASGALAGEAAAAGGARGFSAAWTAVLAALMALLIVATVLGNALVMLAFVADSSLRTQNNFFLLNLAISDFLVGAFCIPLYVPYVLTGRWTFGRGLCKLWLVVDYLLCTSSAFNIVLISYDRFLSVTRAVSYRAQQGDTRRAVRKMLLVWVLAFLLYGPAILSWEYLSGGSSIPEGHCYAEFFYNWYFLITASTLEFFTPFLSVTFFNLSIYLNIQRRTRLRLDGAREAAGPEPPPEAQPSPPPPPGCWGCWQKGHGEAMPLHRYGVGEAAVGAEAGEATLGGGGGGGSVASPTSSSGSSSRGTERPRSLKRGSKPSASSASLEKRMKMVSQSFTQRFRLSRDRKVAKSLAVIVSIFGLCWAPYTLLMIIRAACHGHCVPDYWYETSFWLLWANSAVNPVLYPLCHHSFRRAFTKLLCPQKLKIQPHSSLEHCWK
T5 sequence (P21728 whole entry): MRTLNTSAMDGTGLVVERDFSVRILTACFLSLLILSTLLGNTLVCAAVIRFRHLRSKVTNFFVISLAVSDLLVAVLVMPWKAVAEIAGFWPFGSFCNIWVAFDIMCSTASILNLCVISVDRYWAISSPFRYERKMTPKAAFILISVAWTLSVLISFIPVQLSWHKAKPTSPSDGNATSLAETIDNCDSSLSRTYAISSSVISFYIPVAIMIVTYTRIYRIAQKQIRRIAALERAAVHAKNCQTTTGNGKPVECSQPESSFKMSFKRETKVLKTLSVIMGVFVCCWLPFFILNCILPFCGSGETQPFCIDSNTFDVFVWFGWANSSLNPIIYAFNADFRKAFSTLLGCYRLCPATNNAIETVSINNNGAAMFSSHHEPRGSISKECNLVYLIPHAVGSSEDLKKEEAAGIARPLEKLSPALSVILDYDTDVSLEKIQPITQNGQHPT
T7 sequence (P14416 whole entry): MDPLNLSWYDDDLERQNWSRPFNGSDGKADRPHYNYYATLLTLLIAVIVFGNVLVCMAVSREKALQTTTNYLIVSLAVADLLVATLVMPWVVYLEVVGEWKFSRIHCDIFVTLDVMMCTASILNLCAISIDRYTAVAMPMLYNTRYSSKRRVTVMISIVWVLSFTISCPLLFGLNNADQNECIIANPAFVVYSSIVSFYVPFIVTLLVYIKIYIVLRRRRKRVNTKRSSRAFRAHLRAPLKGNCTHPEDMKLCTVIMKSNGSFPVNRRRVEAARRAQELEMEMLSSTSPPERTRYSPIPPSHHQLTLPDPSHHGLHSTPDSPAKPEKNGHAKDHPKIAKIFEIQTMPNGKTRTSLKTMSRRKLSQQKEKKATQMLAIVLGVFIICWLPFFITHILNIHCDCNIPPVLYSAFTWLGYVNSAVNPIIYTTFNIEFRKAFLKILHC
T4 sequence (P28566 whole entry, species assumed): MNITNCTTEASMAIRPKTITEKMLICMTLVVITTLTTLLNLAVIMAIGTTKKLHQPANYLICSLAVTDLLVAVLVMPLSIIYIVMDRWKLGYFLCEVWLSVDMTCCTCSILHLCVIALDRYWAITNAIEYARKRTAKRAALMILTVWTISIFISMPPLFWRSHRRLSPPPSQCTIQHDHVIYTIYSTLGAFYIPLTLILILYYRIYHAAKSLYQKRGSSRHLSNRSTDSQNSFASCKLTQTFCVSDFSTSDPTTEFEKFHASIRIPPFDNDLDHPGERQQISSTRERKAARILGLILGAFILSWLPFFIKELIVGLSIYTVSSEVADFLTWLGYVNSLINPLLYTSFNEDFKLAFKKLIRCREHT
Sequence of DOR (P41143 whole entry): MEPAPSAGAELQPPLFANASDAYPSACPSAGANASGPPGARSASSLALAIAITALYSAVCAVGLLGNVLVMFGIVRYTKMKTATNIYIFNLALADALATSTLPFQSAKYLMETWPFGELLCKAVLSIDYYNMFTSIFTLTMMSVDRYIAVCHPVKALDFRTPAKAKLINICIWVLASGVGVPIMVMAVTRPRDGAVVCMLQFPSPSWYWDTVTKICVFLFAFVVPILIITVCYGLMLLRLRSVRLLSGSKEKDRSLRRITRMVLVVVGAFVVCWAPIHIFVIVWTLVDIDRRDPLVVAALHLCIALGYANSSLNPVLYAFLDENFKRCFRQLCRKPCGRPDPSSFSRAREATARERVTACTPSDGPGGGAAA
T1 sequence (P34969 1-445 isoform P34969-2): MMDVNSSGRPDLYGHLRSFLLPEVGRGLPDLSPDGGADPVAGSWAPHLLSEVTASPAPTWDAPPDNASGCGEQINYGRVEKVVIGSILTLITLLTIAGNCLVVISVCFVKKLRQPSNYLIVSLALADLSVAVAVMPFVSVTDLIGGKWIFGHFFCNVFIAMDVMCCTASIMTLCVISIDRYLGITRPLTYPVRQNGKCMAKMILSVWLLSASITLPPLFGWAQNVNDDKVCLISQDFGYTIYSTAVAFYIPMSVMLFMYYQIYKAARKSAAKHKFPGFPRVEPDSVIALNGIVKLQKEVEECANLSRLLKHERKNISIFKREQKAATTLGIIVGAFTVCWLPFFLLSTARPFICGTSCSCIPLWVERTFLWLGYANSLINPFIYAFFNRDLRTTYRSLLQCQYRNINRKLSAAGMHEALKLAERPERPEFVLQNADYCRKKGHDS

COc1ccnc(N2CCC3(CCCN(Cc4cn(C)c5ccccc45)C3=O)CC2)n1 [CW24]
inhibition at 10 µM (DOR; [1]): 13.9 ± 19.1%
inhibition at 10 µM (DOR; [2]): 41%
inhibition at 10 µM (DOR; [3]): 8.06%
inhibition at 10 µM (DOR; [4]): 10.6%
inhibition at 10 µM (DOR; [5]): -3.98%
inhibition at 10 µM (5-HT7A; [1]): -54.8 ± 29.3%
inhibition at 10 µM (5-HT7A; [2]): -92.7%
inhibition at 10 µM (5-HT7A; [3]): -50.8%
inhibition at 10 µM (5-HT7A; [4]): -54.3%
inhibition at 10 µM (5-HT7A; [5]): -21.2%
inhibition at 10 µM (Alpha2C; [1]): 11.1 ± 20.6%
inhibition at 10 µM (Alpha2C; [2]): 38.6%
inhibition at 10 µM (Alpha2C; [3]): 2.3%
inhibition at 10 µM (Alpha2C; [4]): -9.91%
inhibition at 10 µM (Alpha2C; [5]): 13.3%
inhibition at 10 µM (Alpha1D; [1]): -13.7 ± 16.7%
inhibition at 10 µM (Alpha1D; [2]): 6.91%
inhibition at 10 µM (Alpha1D; [3]): -32.8%
inhibition at 10 µM (Alpha1D; [4]): -9.43%
inhibition at 10 µM (Alpha1D; [5]): -19.4%
inhibition at 10 µM (5-HT1E; [1]): 18.8 ± 12.2%
inhibition at 10 µM (5-HT1E; [2]): 31.3%
inhibition at 10 µM (5-HT1E; [3]): 19.5%
inhibition at 10 µM (5-HT1E; [4]): 22.5%
inhibition at 10 µM (5-HT1E; [5]): 2.07%
inhibition at 10 µM (D1; [1]): 17.9 ± 12.8%
inhibition at 10 µM (D1; [2]): 22.7%
inhibition at 10 µM (D1; [3]): -0.84%
inhibition at 10 µM (D1; [4]): 21.9%
inhibition at 10 µM (D1; [5]): 28%
inhibition at 10 µM (5-HT3; [1]): -4 ± 15.6%
inhibition at 10 µM (5-HT3; [2]): -7.18%
inhibition at 10 µM (5-HT3; [3]): 2.23%
inhibition at 10 µM (5-HT3; [4]): -23.9%
inhibition at 10 µM (5-HT3; [5]): 12.9%
inhibition at 10 µM (D2; [1]): -1.7 ± 19.3%
inhibition at 10 µM (D2; [2]): -8.12%
inhibition at 10 µM (D2; [3]): 21.4%
inhibition at 10 µM (D2; [4]): -24.2%
inhibition at 10 µM (D2; [5]): 4.13%
inhibition at 10 µM (H3; [1]): -9.38 ± 11.9%
inhibition at 10 µM (H3; [2]): -25%
inhibition at 10 µM (H3; [3]): -12.5%
inhibition at 10 µM (H3; [4]): 0%
inhibition at 10 µM (H3; [5]): 0%
